pIC50: −log10 of the molar value.

In the assay the target is T1, RIPK2 enzyme (Homo sapiens, UniProt O43353).
T1 construct: purchased Carna 09-128
T1 sequence (O43353 1-299 limits assumed): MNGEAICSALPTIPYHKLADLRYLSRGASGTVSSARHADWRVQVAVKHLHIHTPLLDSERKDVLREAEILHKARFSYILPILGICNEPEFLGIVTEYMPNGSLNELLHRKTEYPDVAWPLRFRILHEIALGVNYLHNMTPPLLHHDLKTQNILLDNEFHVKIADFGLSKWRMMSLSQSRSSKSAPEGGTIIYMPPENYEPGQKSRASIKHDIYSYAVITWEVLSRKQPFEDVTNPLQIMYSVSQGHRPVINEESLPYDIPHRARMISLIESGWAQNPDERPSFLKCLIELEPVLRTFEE
The assay can be described thus: RIPK2 inhibition (ADP-Glo Kinase Assay). It is filed as biochemical. Conditions: RIPK2 5 nM, ATP 150 μM, MBP substrate, read-out: RIPK2 IC50. On the procedure: RIPK2 inhibition was measured as follows:
The V9102 ADP-Glo Kinase Assay (including ultrapure ATP, 10 mM) was purchased from Promega. Native swine MBP was used as the substrate for the reaction and was purchased from SignalChem Biotech (catalogue number M42-51N). Assay buffer used for the assay consisted of the following components: MgCl2 (final concentration of 10 mM), Brij-35 (0.01%), DTT (final concentration of 2 mM), BSA (0.05%), EGTA (final concentration of 1 mM), and HEPE (pH 7.5 at final concentration of 50 mM).
Method: In a 384 well plate, 10 nL of test compound was dispensed using Echo550 and mixed with RIPK2 enzyme (final concentration of 5 nM) in assay buffer for 30 minutes at room temperature. […] Then ADP-Glo reagent was added and incubated for 60 min at room temperature. Last, Kinase Detection Reagent was added to the mixture and incubated for 60 min. The resulting luminescent signal was measured with an Envision reader to determine the amount of ADP produced. All plates contained vehicle controls (10 nL DMSO only) as a reference for the high control (0% kinase inhibition), and wells with no RIPK2 enzyme as reference for low control (100% kinase inhibition). Data were analyzed to determine the percent inhibition of ADP production in the presence of test compound using both low and high controls.
In the case of `Cc1c(Oc2ccnc3ccc(C4CCNC4=O)cc23)ccc(CC(=O)Nc2cnn(C(C)(C)C)c2)c1F` (single isomer, unassigned) [Compound 304, N-(1-(tert-butyl)-1H-pyrazol-4-yl)-2-(2-fluoro-3-methyl-4-((6-(2-oxopyrrolidin-3-yl)quinolin-4-yl)oxy)phenyl)acetamide], the pIC50 was greater than 8.60.

For the molecule `Cc1c(Oc2ccnc3ccc(C4CCNC4=O)cc23)ccc(CC(=O)Nc2cnn(C(C)(C)C)c2)c1F` (single isomer, unassigned) [Compound 305, N-(1-(tert-butyl)-1H-pyrazol-4-yl)-2-(2-fluoro-3-methyl-4-((6-(2-oxopyrrolidin-3-yl)quinolin-4-yl)oxy)phenyl)acetamide], the pIC50 was greater than 8.60.

As for `Cc1cc(CC(=O)Nc2cnn(C(C)(C)C)c2)ccc1Oc1ccnc2ccc(N3CC(CO)OC3=O)cc12` (single isomer, unassigned) [Compound 317, N-(1-(tert-butyl)-1H-pyrazol-4-yl)-2-(4-((6-(5-(hydroxymethyl)-2-oxooxazolidin-3-yl)quinolin-4-yl)oxy)-3-methylphenyl) acetamide], the negative-log IC50 (pIC50) was greater than 8.60.

In the case of `Cc1cc(CC(=O)Nc2cnn(C(C)(C)C)c2)ccc1Oc1ccnc2ccc(N3CC(CO)OC3=O)cc12` (single isomer, unassigned) [Compound 318, N-(1-(tert-butyl)-1H-pyrazol-4-yl)-2-(4-((6-(5-(hydroxymethyl)-2-oxooxazolidin-3-yl)quinolin-4-yl)oxy)-3-methylphenyl) acetamide], the pIC50 is greater than 8.60.

In the case of `Cc1cc(CC(=O)Nc2cnn(C(C)(C)C)c2)ccc1Oc1ccnc2ccc(N3CC(CN)OC3=O)cc12` (single isomer, unassigned) [Compound 319, 2-(4-((6-(5-(aminomethyl)-2-oxooxazolidin-3-yl)quinolin-4-yl)oxy)-3-methylphenyl)-N-(1-(tert-butyl)-1H-pyrazol-4-yl)acetamide], the pIC50 is greater than 8.60.

Turning to `Cc1cc(CC(=O)Nc2cnn(C(C)(C)C)c2)ccc1Oc1ccnc2ccc(N3CC(CN)OC3=O)cc12` (single isomer, unassigned) [Compound 320, 2-(4-((6-(5-(aminomethyl)-2-oxooxazolidin-3-yl)quinolin-4-yl)oxy)-3-methylphenyl)-N-(1-(tert-butyl)-1H-pyrazol-4-yl)acetamide], the pIC50 is greater than 8.60.

Consider `Cc1cc(CC(=O)Nc2cnn(C(C)(C)C)c2)ccc1Oc1ccnc2ccc([S+](C)[O-])cc12` (single isomer, unassigned) [Compound 321, N-(1-(tert-butyl)-1H-pyrazol-4-yl)-2-(3-methyl-4-((6-(methylsulfinyl)quinolin-4-yl)oxy)phenyl)acetamide], for which the pIC50 was greater than 8.60.

In the case of `Cc1cc(CC(=O)Nc2cnn(C(C)(C)C)c2)ccc1Oc1ccnc2ccc([S+](C)[O-])cc12` (single isomer, unassigned) [Compound 322, N-(1-(tert-butyl)-1H-pyrazol-4-yl)-2-(3-methyl-4-((6-(methylsulfinyl)quinolin-4-yl)oxy)phenyl)acetamide], the pIC50 is greater than 8.60.

Consider `Cc1c(Oc2ccnc3ccc([S+](C)[O-])cc23)ccc(CC(=O)Nc2cnn(C(C)(C)C)c2)c1F` (single isomer, unassigned) [Compound 323, N-(1-(tert-butyl)-1H-pyrazol-4-yl)-2-(2-fluoro-3-methyl-4-((6-(methylsulfinyl)quinolin-4-yl)oxy)phenyl)acetamide], for which the pIC50 is greater than 8.60.

Take `Cc1c(Oc2ccnc3ccc([S+](C)[O-])cc23)ccc(CC(=O)Nc2cnn(C(C)(C)C)c2)c1F` (single isomer, unassigned) [Compound 324, N-(1-(tert-butyl)-1H-pyrazol-4-yl)-2-(2-fluoro-3-methyl-4-((6-(methylsulfinyl)quinolin-4-yl)oxy)phenyl)acetamide]: the pIC50 is greater than 8.60.

With `Cc1cc(CC(=O)Nc2cnn(C(C)(C)C)c2)ccc1Oc1ccnc2ccc(N3CCC(O)C3=O)cc12` (single isomer, unassigned) [Compound 326, N-(1-(tert-butyl)-1H-pyrazol-4-yl)-2-(4-((6-(3-hydroxy-2-oxopyrrolidin-1-yl)quinolin-4-yl)oxy)-3-methylphenyl) acetamide], the pIC50 is greater than 8.60.

For `Cc1cc(CC(=O)Nc2cnn(C(C)(C)C)c2)ccc1Oc1ccnc2ccc(N3CCC(O)C3=O)cc12` (single isomer, unassigned) [Compound 327, N-(1-(tert-butyl)-1H-pyrazol-4-yl)-2-(4-((6-(3-hydroxy-2-oxopyrrolidin-1-yl)quinolin-4-yl)oxy)-3-methylphenyl) acetamide], the pIC50 is greater than 8.60.

With `Cc1c(Oc2ccnc3ccc(C(=O)N4CCC(O)C4)cc23)ccc(CC(=O)Nc2cnn(C(C)(C)C)c2)c1F` (single isomer, unassigned) [Compound 351, N-(1-(tert-butyl)-1H-pyrazol-4-yl)-2-(2-fluoro-4-((6-(3-hydroxy-pyrrolidine-1-carbonyl)quinolin-4-yl)oxy)-3-methyl-phenyl) acetamide], the pIC50 was greater than 8.60.

In the case of `Cc1c(Oc2ccnc3ccc(C(=O)N4CCC(O)C4)cc23)ccc(CC(=O)Nc2cnn(C(C)(C)C)c2)c1F` (single isomer, unassigned) [Compound 352, N-(1-(tert-butyl)-1H-pyrazol-4-yl)-2-(2-fluoro-4-((6-(3-hydroxy-pyrrolidine-1-carbonyl)quinolin-4-yl)oxy)-3-methyl-phenyl) acetamide], the pIC50 is greater than 8.60.

Consider `Cc1c(Oc2ccnc3ccc(C(=O)N4CCC(N)C4)cc23)ccc(CC(=O)Nc2cnn(C(C)(C)C)c2)c1F` (single isomer, unassigned) [Compound 353, 2-(4-((6-(3-amino-pyrrolidine-1-carbonyl)quinolin-4-yl)oxy)-2-fluoro-3-methyl-phenyl)-N-(1-(tert-butyl)-1H-pyrazol-4-yl)acetamide], for which the pIC50 was greater than 8.60.

`Cc1c(Oc2ccnc3ccc(C(=O)N4CCC(N)C4)cc23)ccc(CC(=O)Nc2cnn(C(C)(C)C)c2)c1F` (single isomer, unassigned) [Compound 354, 2-(4-((6-(3-amino-pyrrolidine-1-carbonyl)quinolin-4-yl)oxy)-2-fluoro-3-methyl-phenyl)-N-(1-(tert-butyl)-1H-pyrazol-4-yl)acetamide]: the pIC50 was greater than 8.60.

Turning to `Cc1cc(CC(=O)Nc2cnn(C(C)(C)C)c2)c(F)cc1Oc1ccnc2ccc(C(=O)N3CCC(O)C3)cc12` (single isomer, unassigned) [Compound 375, N-(1-(tert-butyl)-1H-pyrazol-4-yl)-2-(2-fluoro-4-((6-(3-hydroxy-pyrrolidine-1-carbonyl)quinolin-4-yl)oxy)-5-methyl-phenyl) acetamide], the pIC50 is greater than 8.60.

In the case of `Cc1cc(CC(=O)Nc2cnn(C(C)(C)C)c2)c(F)cc1Oc1ccnc2ccc(C(=O)N3CCC(O)C3)cc12` (single isomer, unassigned) [Compound 376, N-(1-(tert-butyl)-1H-pyrazol-4-yl)-2-(2-fluoro-4-((6-(3-hydroxy-pyrrolidine-1-carbonyl)quinolin-4-yl)oxy)-5-methylphenyl) acetamide], the pIC50 is greater than 8.60.

Turning to `Cc1cc(CC(=O)Nc2cnn(C(C)(C)C)c2)c(F)cc1Oc1ccnc2ccc(C(=O)NC3CC(C#N)C3)cc12` (single isomer, unassigned) [Compound 395, 4-(4-(2-((1-(tert-butyl)-1H-pyrazol-4-yl)amino)-2-oxoethyl)-5-fluoro-2-methyl-phenoxy)-N-(-3-cyano-cyclobutyl) quinoline-6-carboxamide], the pIC50 is greater than 8.60.

In the case of `Cc1cc(CC(=O)Nc2cnn(C(C)(C)C)c2)c(F)cc1Oc1ccnc2ccc(C(=O)NC3CC(C#N)C3)cc12` (single isomer, unassigned) [Compound 396, 4-(4-(2-((1-(tert-butyl)-1H-pyrazol-4-yl)amino)-2-oxoethyl)-5-fluoro-2-methyl-phenoxy)-N-(-3-cyano-cyclobutyl) quinoline-6-carboxamide], the pIC50 is greater than 8.60.

On to `Cc1c(Oc2ccnc3ccc(C(=O)NC4CC(C#N)C4)cc23)ccc(CC(=O)Nc2cnn(C(C)(C)C)c2)c1F` (single isomer, unassigned) [Compound 403, 4-(4-(2-((1-(tert-butyl)-1H-pyrazol-4-yl)amino)-2-oxoethyl)-3-fluoro-2-methyl-phenoxy)-N-(-3-cyano-cyclobutyl) quinoline-6-carboxamide], for which the pIC50 was greater than 8.60.

For the molecule `Cc1c(Oc2ccnc3ccc(C(=O)NC4CC(C#N)C4)cc23)ccc(CC(=O)Nc2cnn(C(C)(C)C)c2)c1F` (single isomer, unassigned) [Compound 404, 4-(4-(2-((1-(tert-butyl)-1H-pyrazol-4-yl)amino)-2-oxoethyl)-3-fluoro-2-methyl-phenoxy)-N-(-3-cyano-cyclobutyl) quinoline-6-carboxamide], the pIC50 was greater than 8.60.

In the case of `COc1ccc2nccc(Oc3ccc(CC(=O)Nc4cnn(C(C)(C)C)c4)c(F)c3)c2c1` [Compound 1, N-(1-(tert-butyl)-1H-pyrazol-4-yl)-2-(2-fluoro-4-((6-methoxy-quinolin-4-yl)oxy)phenyl) acetamide], the pIC50 is 8.25.

With `COc1cc2ncnc(Oc3ccc(CC(=O)Nc4cnn(C(C)(C)C)c4)c(F)c3)c2cc1S(=O)(=O)C(C)(C)C` [Compound 2, N-(1-(tert-butyl)-1H-pyrazol-4-yl)-2-(4-((6-(tert-butylsulfonyl)-7-methoxyquinazolin-4-yl)oxy)-2-fluorophenyl)acetamide], the pIC50 is greater than 8.60.

For the origin of these results see US12624018B1, “Inhibitors of RIPK2 and medical uses thereof” (Odyssey Therapeutics, Inc., priority 2022, dated 2026).
